We go through 15 compounds from PubChem BioAssay (NCI).

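Method: 48-hour compound exposure of cells in 96-well plates, five concentrations, linear interpolation of endpoints. Here, GI50 denotes the concentration required for 50% inhibition of growth. TGI denotes the concentration required for complete inhibition of growth.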

Holding throughout (experiment): inhibition of tumour cell growth, NCI panel, 48 h
Assay [1] concerns CAKI-1 renal.
In assay [2] the test system is COLO 205 colon.
The subject of assay [3] is HS 578T breast.
Assay [4] has as its system IGROV1 ovarian.
Assay [5] relates to NCI/ADR-RES ovarian.
Assay [6] has as its system OVCAR-8 ovarian.
Assay [7] has as its system RPMI-8226 leukemia.
Assay [8] concerns SF-268 CNS.
The subject of assay [9] is SK-OV-3 ovarian.
Assay [10] deals with TK-10 renal.

For `CCSc1nc(SCC)c2c(-c3ccc(OC)c(OC)c3)c(C#N)c(SCC)nc2n1`, the GI50 is 5.39 µM in assay [1]; 91.5 µM in assay [2]; 3 µM in assay [3]; 33.5 µM in [4]; 14.4 µM in assay [5]; 43.8 µM in assay [6]. Also, the GI50 was 8.38 µM in assay [7], 14.2 µM in assay [8], greater than 100 µM in assay [9] and 17.5 µM in [10]. Besides, the TGI in [1] is 25.3 µM; in assay [2] it was greater than 100 µM; in [3] it was 19.7 µM; in assay [4], greater than 100 µM; in [5], 45 µM; in assay [6], greater than 100 µM. The TGI is 94.4 µM in [7], 77.4 µM in [8], greater than 100 µM in assay [9] and 53.3 µM in assay [10].

For `O=C1C(SCCO)=C(SCCO)C(=O)N1c1ccc(-c2ccccc2)cc1`, the GI50 was 0.644 µM in [1]; 1.45 µM in assay [2]; 17.2 µM in assay [3]; 2.02 µM in assay [4]; 3.54 µM in assay [5]; 2 µM in [6]. The GI50 in [7] is 0.845 µM; in assay [8], 3.1 µM; in assay [9], 32.7 µM; in assay [10] it was 1.49 µM. Also, the TGI in assay [1] was 1.79 µM; in assay [2], 3.09 µM; in assay [3], greater than 77.9 µM; in [4] it was 4.67 µM; in assay [5], 16.2 µM; in assay [6], 5.82 µM. In addition, the TGI is 4.6 µM in [7], 7.65 µM in assay [8], greater than 100 µM in [9] and 3.18 µM in [10].

Take `CCC[CH2][Sn]1([CH2]CCC)[O]C2C(CO)OC(n3ccc(N)nc3=O)C2[O]1` (centres undefined): the GI50 in assay [1] is 1.19 µM; in assay [2], 1.48 µM; in [3], 1.29 µM; in [4], 1.02 µM; in assay [5] it was 2.01 µM; in [6], 1.66 µM. The GI50 is 0.29 µM in assay [7], 1.08 µM in [8], 1.82 µM in assay [9] and 1.15 µM in [10]. In addition, the TGI in assay [1] worked out at 2.53 µM; in [2] it was 3.15 µM; in assay [3], 4.14 µM; in assay [4] it was 2.78 µM; in assay [5], 4.37 µM; in assay [6], 3.11 µM. In addition, the TGI in assay [7] stood at 2.02 µM; in assay [8] it was 2.47 µM; in assay [9] it was 3.38 µM; in [10], 2.38 µM.

`CC(C)(C)c1[nH]nc2c1C(c1cc3ccccc3[nH]c1=O)Nc1cc(C(=O)OCc3ccccc3)ccc1N2` (centres undefined): the GI50 was 8.75 µM in assay [1]; 3.54 µM in assay [2]; 7.45 µM in assay [3]; 4.32 µM in [4]; greater than 100 µM in assay [5]; 5.5 µM in assay [6]. The GI50 in assay [7] is 2.71 µM; in assay [8], 4.82 µM; in assay [9], 3.27 µM; in assay [10], 3.83 µM. The TGI was greater than 100 µM in assay [1]; 10.4 µM in assay [2]; greater than 100 µM in [3]; greater than 100 µM in [4]; greater than 100 µM in assay [5]; greater than 100 µM in assay [6]. Also, the TGI in [7] was greater than 100 µM; in assay [8], greater than 100 µM; in assay [9] it was 8.73 µM; in assay [10], 19.6 µM.

On to `Cn1cccc1-c1cc(-c2ccc(Br)cc2)[nH]c(=O)c1C#N`, for which the GI50 in assay [1] was greater than 100 µM; in assay [2] it was greater than 100 µM; in assay [3] it was greater than 100 µM; in assay [4] it was 77.2 µM; in assay [5], greater than 100 µM; in assay [6], greater than 100 µM. Also, the GI50 in [7], in assay [8], in [9] and in [10] was greater than 100 µM throughout. In addition, the TGI in assay [1], in assay [2], in assay [3], in assay [4], in assay [5] and in assay [6] was greater than 100 µM throughout. The TGI in assay [7], in assay [8], in assay [9] and in [10] was greater than 100 µM each time.

In the case of `Nc1ncnc2c1c(-c1ccc(Oc3ccccc3)cc1)nn2C[C@@H]1SSC[C@H]1O`, the GI50 is 2.18 µM in assay [1]; 2.14 µM in assay [2]; 2.96 µM in assay [3]; 1.34 µM in [4]; 2.96 µM in assay [5]; 3.35 µM in assay [6]. The GI50 is 5.58 µM in [7], 0.199 µM in assay [8], 0.92 µM in assay [9] and 1.49 µM in [10]. For the same compound, the TGI in assay [1] was determined as 10.5 µM; in [2] it was 7.48 µM; in assay [3] it was 11.2 µM; in assay [4], 4.2 µM; in assay [5], 14 µM; in assay [6], 14.3 µM. Besides, the TGI in assay [7] worked out at 31.8 µM; in [8] it was 15.1 µM; in assay [9] it was 4.33 µM; in assay [10] it was 3.16 µM.

Take `COc1ccccc1CNCCCN1C(=O)c2ccc3c4c(ccc(c24)C1=O)C(=O)N(CCCN)C3=O`: the GI50 in [1] is 1.76 µM; in assay [2] it was 0.814 µM; in [3] it was 1.96 µM; in assay [4], 1.35 µM; in assay [5] it was 2.86 µM; in assay [6], 0.49 µM. The GI50 was 1.36 µM in assay [7], 1.22 µM in assay [8], 2.53 µM in [9] and 2.28 µM in [10]. For the same compound, the TGI in assay [1] stood at 4.73 µM; in [2] it was 2.12 µM; in [3], 6.95 µM; in assay [4] it was 3.48 µM; in assay [5], 9.6 µM; in assay [6], 3.81 µM. Moreover, the TGI came out at 4.52 µM in assay [7], 3.94 µM in assay [8], 7.18 µM in [9] and 7.89 µM in assay [10].

As for `CC1=C(C(=O)N(C)c2ccc(Cl)c(C(=O)OC(C)C)c2)SCCO1`, the TGI in [1], in [2], in [3], in assay [4], in [5] and in [6] was greater than 100 µM in each case. Further, the TGI in [7], in assay [8], in [9] and in assay [10] was greater than 100 µM throughout.

Regarding `N#CSCc1ccc(Cl)c(CSC#N)c1`, the GI50 is 0.169 µM in [1]; 0.0513 µM in assay [2]; 3.16 µM in [3]; 5.9 µM in [4]; 1.9 µM in assay [5]; 0.298 µM in assay [6]. Further, the GI50 in [7] was 0.186 µM; in assay [8] it was 0.298 µM; in assay [9], 20 µM; in assay [10] it was 14.5 µM. The TGI is 21.7 µM in assay [1]; 11.4 µM in assay [2]; 97.9 µM in assay [3]; 49.8 µM in assay [4]; greater than 60.9 µM in [5]; greater than 73.6 µM in assay [6]. Besides, the TGI in [7] was 28.1 µM; in [8] it was 37.4 µM; in assay [9] it was greater than 100 µM; in assay [10] it was 46.6 µM.

In the case of `O=[N+]([O-])c1ccc(N2CCC(CCCC3CCN(c4ccc([N+](=O)[O-])cc4[N+](=O)[O-])CC3)CC2)c([N+](=O)[O-])c1`, the TGI in assay [1] is 41.1 µM; in assay [2], 31.8 µM; in [3] it was greater than 100 µM; in assay [4] it was 25.3 µM; in [5], 57.7 µM; in assay [6], 33.3 µM. The TGI in assay [7] was 43.3 µM; in assay [8] it was 42.6 µM; in assay [9], 37.5 µM; in assay [10] it was 32.7 µM.

For `Nc1ccccc1C#C/C=C\C#Cc1cccc(O)c1`, the GI50 in assay [1] was 8.08 µM; in [2], 8.45 µM; in assay [3], 3.39 µM; in assay [4], 0.646 µM; in [5] it was 2.39 µM; in assay [6] it was 0.663 µM. Also, the GI50 in assay [7] is 2.51 µM; in [8], 7.93 µM; in assay [9] it was 3.03 µM; in assay [10] it was 8.73 µM. For the same compound, the TGI in [1] stood at 36.2 µM; in [2], 23 µM; in assay [3], 22.8 µM; in [4], 12.3 µM; in assay [5], 10.3 µM; in [6], 13.9 µM. In addition, the TGI in assay [7] was greater than 38.2 µM; in [8], 44.5 µM; in [9] it was 19.8 µM; in assay [10], 29.7 µM.

For `Nc1c(C(=O)c2cccc(C#CCO)c2)cnn1-c1ccc(F)cc1`, the GI50 in [1] is greater than 25 µM; in [2], greater than 25 µM; in assay [3], 5.18 µM; in assay [4] it was greater than 25 µM; in assay [5], greater than 25 µM; in [6], greater than 25 µM. The GI50 in [7], in assay [8], in [9] and in assay [10] was greater than 25 µM each time. The TGI in assay [1], in assay [2], in [3], in [4], in [5] and in assay [6] was greater than 25 µM each time. Also, the TGI in [7], in assay [8], in assay [9] and in assay [10] was greater than 25 µM each time.

As to `N#Cc1nc2c(S(=O)(=O)c3ccc(Cl)cc3)c(N)n(CCCN3CCOCC3)c2nc1C#N`, the GI50 in [1] is 2.64 µM; in assay [2], 3.45 µM; in assay [3] it was 1.76 µM; in [5] it was 33.2 µM; in assay [6], 4.07 µM; in assay [7] it was 4.68 µM. Moreover, the GI50 is 5.19 µM in assay [8], 27.1 µM in [9] and 10.1 µM in [10]. Besides, the TGI is 13.8 µM in [1]; 13.6 µM in assay [2]; 5.06 µM in assay [3]; greater than 100 µM in assay [5]; greater than 100 µM in assay [6]; 41 µM in assay [7]. Moreover, the values for the TGI in [8], in [9] and in assay [10] were 35.4 µM, greater than 100 µM and 23.6 µM, respectively.

As for `CC(=O)[O][Sn]([CH2]c1ccccc1)([CH2]c1ccccc1)[CH2]c1ccccc1`, the GI50 in assay [1] was greater than 10 µM; in assay [2], greater than 5.6 µM; in assay [3], greater than 6.39 µM; in assay [4], greater than 10 µM; in assay [5] it was greater than 10 µM; in [6] it was greater than 10 µM. Further, the GI50 in assay [7] is 3.65 µM; in [9], greater than 10 µM; in [10], greater than 3.8 µM. In addition, the TGI was greater than 10 µM in assay [1]; greater than 6.79 µM in assay [2]; greater than 9.44 µM in assay [3]; greater than 10 µM in [4]; greater than 10 µM in assay [5]; greater than 10 µM in [6]. The TGI is greater than 4.64 µM in assay [7], greater than 10 µM in [9] and greater than 5.43 µM in [10].

`C=C1CC[C@@H]2[C@](C)(COC(C)=O)[C@H](OC(C)=O)CC[C@@]2(C)[C@@H]1CC(Nc1ccc(S(=O)(=O)Nc2ccc(Cl)nn2)cc1)C1=CCOC1=O` (some centres undefined): the GI50 in [1] was 2.28 µM; in assay [2] it was 1.46 µM; in assay [3], 6.17 µM; in assay [4], 2.08 µM; in assay [5], 1.87 µM; in assay [7], 0.445 µM. In addition, the GI50 in assay [8] was 1.8 µM; in [9] it was 4.05 µM; in assay [10], 2.13 µM. Besides, the TGI in assay [1] is 10 µM; in assay [2] it was 3.16 µM; in assay [3] it was greater than 100 µM; in [4], 5 µM; in assay [5], 6.2 µM; in assay [7] it was 3.04 µM. Further, the figures for the TGI in assay [8], in assay [9] and in assay [10] were 3.67 µM, 12.3 µM and 4.19 µM, respectively.
